The target of assay [1] is T1, KRas G12D (Homo sapiens (Human), UniProt P01116, G12D). As to the kind of experiment: KRas G12D Surface Plasmon Resonance (SPR) Binding Assay. The note with it: Biacore T200, immobilized biotinylated KRAS protein, 1:1 binding model. As to the method: Briefly, 1L of 1.05X HBS-Mg buffer (262.5 mM Bioultra Hepes, pH 7.5, 157.5 mM NaCl, 105 mM MgCl2, 0.525 mM TCEP, 0.0305% Brij-35) was prepared and filter sterilized using a 0.22 μm bottle top filter. Approximately 50 mL of 1.05X HBS-Mg buffer was removed and saved for future dilutions. A 50 mL aliquot of DMSO (Sigma Aldrich DMSO Lot. #SHBK2079) was added and continued to stir for 10 minutes, creating the final 1.0X HBS-Mg buffer (250 mM Bioultra Hepes pH 7.5, 150 mM NaCl, 100 mM MgCl2, 0.5 mM TCEP, 0.03% Brij-35).
Biacore T200 instrument was primed using 1.0X HBS-Mg buffer before docking a GE Streptavidin (SA) chip and then primed two additional times prior to beginning the immobilization step. All immobilized protein mixtures were created using 3-5 mg/mL Biotinylated Avidin-tagged KRAS protein using the following immobilization settings: SA chip type, 1 flow cells per cycle, 720 second contact time, and 5 ul/min flow rate. Normalization of the detector was also performed during the immobilization step using the GE BiaNormalize solution.
All compounds were diluted to 10 mM in 100% DMSO prior to being diluted 20X in 1.05X buffer. Another 10X dilution was created using 1.0X buffer prior to performing a series of 3X dilutions to create a compound concentration curve using the following assay settings: 20C analysis temperature, General Settings=10 Hz data collection rate and multi-detection; Assay Steps=all set to LMW kinetics; Cycle Types=LMW kinetics (60 s contact time, 120 s dissociation time, 100 ul/min flow rate, extra wash after injection with 50% DMSO, flow path 1,2,3,4); Flow path detection=2-1, 4-3). Data evaluation was performed using the Biacore T200 Evaluation software and data fit to 1:1 binding model. ND=not determined.
A general note: Surface plasmon resonance follows binding to a sensor surface in real time, without labels.
Target sequence in this assay (P01116-2 other isoform, or with tags, fused parts or gaps G12D): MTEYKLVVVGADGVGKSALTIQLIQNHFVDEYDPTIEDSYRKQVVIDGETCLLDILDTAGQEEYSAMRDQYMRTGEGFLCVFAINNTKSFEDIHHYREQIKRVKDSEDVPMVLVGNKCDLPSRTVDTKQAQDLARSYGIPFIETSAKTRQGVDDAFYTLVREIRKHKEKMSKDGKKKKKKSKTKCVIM

In assay [2] the target is T1, KRas G12D. As to the kind of experiment: KRas G12D Binding Assay (TR-FRET displacement of Cy5 labelled tracer). The note with it: GDP-loaded KRAS G12D (amino acids 1:169), 60 minute incubation at 22° C. As for the experimental part: After a 60 minute incubation at 22° C., the reaction was measured using a PerkinElmer EnVision multimode plate reader via TR-FRET dual wavelength detection, and the percent of control (POC) calculated using a ratiometric emission factor. […] The POC values were fit to a 4-parameter logistic curve and the IC50 value was determined as the concentration where the curve crosses 50 POC.
ND stands for “not determined.”
Target sequence in this assay (P01116 other isoform, or with tags, fused parts or gaps G12D): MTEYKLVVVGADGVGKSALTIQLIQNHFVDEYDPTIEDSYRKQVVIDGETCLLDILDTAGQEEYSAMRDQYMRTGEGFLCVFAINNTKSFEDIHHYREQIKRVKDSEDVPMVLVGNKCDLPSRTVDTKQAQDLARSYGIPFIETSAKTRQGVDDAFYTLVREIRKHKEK
(In general: In TR-FRET formats the signal depends on donor and acceptor labels being close together.)

Some results are limits rather than exact numbers.

For the compound `Cc1cccc2cccc(-c3ncc4c(N5C[C@H]6CC[C@@H](C5)N6)nc(OCCc5nccn5C)nc4c3F)c12` [Example 100, 4-((1R,5S)-3,8-diazabicyclo[3.2.1]octan-3-yl)-8-fluoro-2-(2-(1-methyl-1H-imidazol-2-yl)ethoxy)-7-(8-methylnaphthalen-1-yl)pyrido[4,3-d]pyrimidine], in assay [1], the Kd was 1090 nM. For the same compound, the IC50 in assay [2] turned out to be 1950 nM.

In assay [1], `Cc1nccn1CCOc1nc(N2CC3CCC(C2)N3)c2cnc(-c3cc(O)cc4ccccc34)c(F)c2n1` [Example 84, 4-(4-((1R,5S)-3,8-diazabicyclo[3.2.1]octan-3-yl)-8-fluoro-2-(2-(2-methyl-1H-imidazol-1-yl)ethoxy)pyrido[4,3-d]pyrimidin-7-yl)naphthalen-2-ol] returned a Kd of 14.4 nM. In assay [2], this compound gave an IC50 of 31.7 nM.

In the case of `Fc1c(-c2cccc3cccc(Cl)c23)ncc2c(N3C[C@H]4CC[C@@H](C3)N4)nc(OCC34CCCN3CCC4)nc12` [Example 45, 4-((1R,5S)-3,8-diazabicyclo[3.2.1]octan-3-yl)-7-(8-chloronaphthalen-1-yl)-8-fluoro-2-((tetrahydro-1H-pyrrolizin-7a(5H)-yl)methoxy)pyrido[4,3-d]pyrimidine], in assay [1], binding was put at a Kd of 5.1 nM. In addition, the IC50 in assay [2] stood at 5.5 nM.

Compound `CN1CCC[C@H]1COc1nc(N2C[C@H]3CC[C@@H](C2)N3)c2cnc(-c3cccc4c3C3(CC4)CC3)c(F)c2n1` [Example 162, 4-((1R,5S)-3,8-diazabicyclo[3.2.1]octan-3-yl)-7-(2′,3′-dihydrospiro[cyclopropane-1,1′-inden]-7′-yl)-8-fluoro-2-(((S)-1-methylpyrrolidin-2-yl)methoxy)pyrido[4,3-d]pyrimidine bis(2,2,2-trifluoroacetate)] yielded a Kd in assay [1] of 555 nM. In assay [2], this compound registered an IC50 of 677 nM.

Take `Fc1c(-c2cccc3cccc(Cl)c23)ncc2c(N3C[C@H]4CC[C@@H](C3)N4)nc(OCCn3cccn3)nc12` [Example 147, 2-(2-(1H-pyrazol-1-yl)ethoxy)-4-((1R,5S)-3,8-diazabicyclo[3.2.1]octan-3-yl)-7-(8-chloronaphthalen-1-yl)-8-fluoropyrido[4,3-d]pyrimidine]: the dissociation constant (Kd) in assay [1] is 18800 nM. For the same compound, the 50% inhibitory concentration (IC50) in assay [2] was 5880 nM.

Turning to `Cc1cccc2cccc(-c3cc4nc(OC[C@@H]5CCCN5C)nc(N5C[C@H]6CC[C@@H](C5)N6)c4cn3)c12` [Example 116, 4-((1R,5S)-3,8-diazabicyclo[3.2.1]octan-3-yl)-7-(8-methylnaphthalen-1-yl)-2-(((S)-1-methylpyrrolidin-2-yl)methoxy)pyrido[4,3-d]pyrimidine], binding in assay [1] was characterised by a dissociation constant (Kd) of 3630 nM. Besides, in assay [2], the half-inhibitory concentration (IC50) came out at 1440 nM.

With `CN1C[C@H](F)C[C@H]1COc1nc(N2C[C@H]3CC[C@@H](C2)N3)c2cnc(-c3cccc4cccc(Cl)c34)c(F)c2n1` [Example 115, 4-((1R,5S)-3,8-diazabicyclo[3.2.1]octan-3-yl)-7-(8-chloronaphthalen-1-yl)-8-fluoro-2-(((2S,4R)-4-fluoro-1-methylpyrrolidin-2-yl)methoxy)pyrido[4,3-d]pyrimidine], the Kd in assay [1] amounted to 333000 nM. In assay [2], the IC50 was determined as 174 nM.

With `Oc1cc(-c2ncc3c(N4C[C@H]5CC[C@@H](C4)N5)nc(OCC(F)(F)C(F)F)nc3c2F)c2ccccc2c1` [Example 52, 4-(4-((1R,5S)-3,8-diazabicyclo[3.2.1]octan-3-yl)-8-fluoro-2-(2,2,3,3-tetrafluoropropoxy)pyrido[4,3-d]pyrimidin-7-yl)naphthalen-2-ol], the affinity in assay [1], expressed as Kd, was 507 nM. This compound also yielded an IC50 in assay [2] of 318 nM.

`O=S1(=O)CCC(Oc2nc(N3C[C@H]4CC[C@@H](C3)N4)c3cnc(-c4cc(O)cc5ccccc45)c(F)c3n2)CC1` [Example 71, 4-((4-((1R,5S)-3,8-diazabicyclo[3.2.1]octan-3-yl)-8-fluoro-7-(3-hydroxynaphthalen-1-yl)pyrido[4,3-d]pyrimidin-2-yl)oxy)tetrahydro-2H-thiopyran 1,1-dioxide] gave a Kd in assay [1] of 138 nM. In addition, the IC50 in assay [2] was determined as 126 nM.

Compound `[O-][S+]1CCC(Oc2nc(N3C[C@H]4CC[C@@H](C3)N4)c3cnc(-c4cc(O)cc5ccccc45)c(F)c3n2)CC1` (stereo partly drawn) [Example 82, 4-((4-((1R,5S)-3,8-diazabicyclo[3.2.1]octan-3-yl)-8-fluoro-7-(3-hydroxynaphthalen-1-yl)pyrido[4,3-d]pyrimidin-2-yl)oxy)tetrahydro-2H-thiopyran 1-oxide] came in with a Kd in assay [1] of 215 nM. The compound further returned an IC50 in assay [2] of 227 nM.

In turn, `Oc1cc(-c2ncc3c(N4C[C@H]5CC[C@@H](C4)N5)nc(OC4CCC(F)(F)CC4)nc3c2F)c2ccccc2c1` [Example 80, 4-(4-((1R,5S)-3,8-diazabicyclo[3.2.1]octan-3-yl)-2-((4,4-difluorocyclohexyl)oxy)-8-fluoropyrido[4,3-d]pyrimidin-7-yl)naphthalen-2-ol] registered a Kd in assay [1] greater than 500000 nM. This compound registered an IC50 in assay [2] of 647 nM.

The compound `CN1CCC[C@H]1COc1nc(N2C[C@H]3CC[C@@H](C2)N3)c2cnc(-c3cccc4ccccc34)c(F)c2n1` [Example 20, 4-((1R,5S)-3,8-diazabicyclo[3.2.1]octan-3-yl)-8-fluoro-2-(((S)-1-methylpyrrolidin-2-yl)methoxy)-7-(naphthalen-1-yl)pyrido[4,3-d]pyrimidine] gave a dissociation constant Kd in assay [1] of 967 nM. Further, the IC50 in assay [2] turned out to be 692 nM.

The compound `CC(=O)N1CCC(Oc2nc(N3C[C@H]4CC[C@@H](C3)N4)c3cnc(-c4cc(O)cc5ccccc45)c(F)c3n2)CC1` [Example 78, 1-(4-((4-((1R,5S)-3,8-diazabicyclo[3.2.1]octan-3-yl)-8-fluoro-7-(3-hydroxynaphthalen-1-yl)pyrido[4,3-d]pyrimidin-2-yl)oxy)piperidin-1-yl)ethan-1-one] came in with a Kd in assay [1] of 368 nM. The compound further had an IC50 in assay [2] of 358 nM.

Regarding `Fc1c(-c2cccc3cccc(Cl)c23)ncc2c(N3C[C@H]4CC[C@@H](C3)N4)nc(OC3CCc4cn[nH]c4C3)nc12` (stereo partly drawn) [Example 143, 4-((1R,5S)-3,8-diazabicyclo[3.2.1]octan-3-yl)-7-(8-chloronaphthalen-1-yl)-8-fluoro-2-((4,5,6,7-tetrahydro-1H-indazol-6-yl)oxy)pyrido[4,3-d]pyrimidine], the Kd in assay [1] was determined as 14900 nM. In assay [2], this compound had a concentration for half-maximal inhibition (IC50) of 4560 nM.

The compound `Oc1cc(-c2ncc3c(N4C[C@H]5CC[C@@H](C4)N5)nc(OC[C@@H]4CCCN4)nc3c2F)c2ccccc2c1` [Example 50, 4-(4-((1R,5S)-3,8-diazabicyclo[3.2.1]octan-3-yl)-8-fluoro-2-(((S)-pyrrolidin-2-yl)methoxy)pyrido[4,3-d]pyrimidin-7-yl)naphthalen-2-ol] registered a Kd in assay [1] of 2.1 nM. This compound also came in with an IC50 in assay [2] of 2.5 nM.

Turning to `CN1CCC[C@H]1COc1nc(N2CC3CCC(CO)(C2)N3)c2cnc(-c3cc(O)cc4ccccc34)c(F)c2n1` (stereo partly drawn) [Example 215, 4-(8-fluoro-4-(1-(hydroxymethyl)-3,8-diazabicyclo[3.2.1]octan-3-yl)-2-(((S)-1-methylpyrrolidin-2-yl)methoxy)pyrido[4,3-d]pyrimidin-7-yl)naphthalen-2-ol bis(2,2,2-trifluoroacetate)], in assay [1], the dissociation constant Kd turned out to be 70.4 nM. This counts as double-digit nanomolar.

In assay [1], `CC(Oc1nc(N2C[C@H]3CC[C@@H](C2)N3)c2cnc(-c3cc(O)cc4ccccc34)c(F)c2n1)C1CCCN1C` (stereo partly drawn) [Example 27, 4-(4-((1R,5S)-3,8-diazabicyclo[3.2.1]octan-3-yl)-8-fluoro-2-(1-(1-methylpyrrolidin-2-yl)ethoxy)pyrido[4,3-d]pyrimidin-7-yl)naphthalen-2-ol] gave a Kd of 25.9 nM.

In turn, `Oc1cc(-c2ncc3c(N4C[C@H]5CC[C@@H](C4)N5)nc(OCc4ccccc4F)nc3c2F)c2ccccc2c1` [Example 217, 4-(4-((1R,5S)-3,8-diazabicyclo[3.2.1]octan-3-yl)-8-fluoro-2-((2-fluorobenzyl)oxy)pyrido[4,3-d]pyrimidin-7-yl)naphthalen-2-ol] had a Kd in assay [1] of 2980 nM.

Regarding `CN1C[C@H](C(F)(F)F)C[C@H]1COc1nc(N2C[C@H]3CC[C@@H](C2)N3)c2cnc(-c3cc(O)cc4ccccc34)c(F)c2n1` [Example 28, 4-(4-((1R,5S)-3,8-diazabicyclo[3.2.1]octan-3-yl)-8-fluoro-2-(((2S,4R)-1-methyl-4-(trifluoromethyl)pyrrolidin-2-yl)methoxy)pyrido[4,3-d]pyrimidin-7-yl)naphthalen-2-ol], the Kd in assay [1] was 58.7 nM.

For `CN1CCC[C@H]1COc1nc(N2CC3CCC(C=O)(C2)N3)c2cnc(-c3cc(O)cc4ccccc34)c(F)c2n1` (stereo partly drawn) [Example 214, 3-(8-fluoro-7-(3-hydroxynaphthalen-1-yl)-2-(((S)-1-methylpyrrolidin-2-yl)methoxy)pyrido[4,3-d]pyrimidin-4-yl)-3,8-diazabicyclo[3.2.1]octane-1-carbaldehyde], binding in assay [1] was put at a Kd of 284 nM.

The term Kd denotes a measure of binding affinity in units of concentration. As usually defined, the IC50 is the concentration that inhibits the measured activity by half.

(Values after US20230279025A1, “KRAS G12D INHIBITORS” (Mirati Therapeutics, Inc., priority 2020, published 2023).)
